Source: ChEMBL document CHEMBL1139631, “Inhibition of hydrogen peroxide-induced necrotic cell death with 3-amino-2-indolylmaleimide derivatives” (Bioorg Med Chem Lett, 2005)

Key:
Set-up in all cases: scale not given: the % may be the effect or the level left
[1] = target: T1, Protein kinase C iota type (Homo sapiens) (UniProt P41743); test: Percentage inhibition of Protein kinase C iota at 50 uM
T1 sequence (whole entry): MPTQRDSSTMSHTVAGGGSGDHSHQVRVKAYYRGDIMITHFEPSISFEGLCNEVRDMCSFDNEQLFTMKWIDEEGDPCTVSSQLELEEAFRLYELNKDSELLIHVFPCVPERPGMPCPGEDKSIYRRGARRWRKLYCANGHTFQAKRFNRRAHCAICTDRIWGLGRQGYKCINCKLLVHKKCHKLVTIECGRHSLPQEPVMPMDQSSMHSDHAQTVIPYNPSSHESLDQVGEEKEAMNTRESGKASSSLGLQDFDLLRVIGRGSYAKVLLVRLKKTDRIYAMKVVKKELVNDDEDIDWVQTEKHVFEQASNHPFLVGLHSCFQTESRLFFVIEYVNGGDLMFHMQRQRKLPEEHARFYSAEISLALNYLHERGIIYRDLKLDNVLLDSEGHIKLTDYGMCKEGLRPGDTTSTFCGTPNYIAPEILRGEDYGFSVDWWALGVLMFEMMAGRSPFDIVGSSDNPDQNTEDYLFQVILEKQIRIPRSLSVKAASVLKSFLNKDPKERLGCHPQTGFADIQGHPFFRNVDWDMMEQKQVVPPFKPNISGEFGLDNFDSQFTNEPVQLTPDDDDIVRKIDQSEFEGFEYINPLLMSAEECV

[2] = target: T2, Serine/threonine-protein kinase D1 (Homo sapiens) (UniProt Q15139); test: Percentage inhibition of Protein kinase C mu at 50 uM
T2 sequence (whole entry): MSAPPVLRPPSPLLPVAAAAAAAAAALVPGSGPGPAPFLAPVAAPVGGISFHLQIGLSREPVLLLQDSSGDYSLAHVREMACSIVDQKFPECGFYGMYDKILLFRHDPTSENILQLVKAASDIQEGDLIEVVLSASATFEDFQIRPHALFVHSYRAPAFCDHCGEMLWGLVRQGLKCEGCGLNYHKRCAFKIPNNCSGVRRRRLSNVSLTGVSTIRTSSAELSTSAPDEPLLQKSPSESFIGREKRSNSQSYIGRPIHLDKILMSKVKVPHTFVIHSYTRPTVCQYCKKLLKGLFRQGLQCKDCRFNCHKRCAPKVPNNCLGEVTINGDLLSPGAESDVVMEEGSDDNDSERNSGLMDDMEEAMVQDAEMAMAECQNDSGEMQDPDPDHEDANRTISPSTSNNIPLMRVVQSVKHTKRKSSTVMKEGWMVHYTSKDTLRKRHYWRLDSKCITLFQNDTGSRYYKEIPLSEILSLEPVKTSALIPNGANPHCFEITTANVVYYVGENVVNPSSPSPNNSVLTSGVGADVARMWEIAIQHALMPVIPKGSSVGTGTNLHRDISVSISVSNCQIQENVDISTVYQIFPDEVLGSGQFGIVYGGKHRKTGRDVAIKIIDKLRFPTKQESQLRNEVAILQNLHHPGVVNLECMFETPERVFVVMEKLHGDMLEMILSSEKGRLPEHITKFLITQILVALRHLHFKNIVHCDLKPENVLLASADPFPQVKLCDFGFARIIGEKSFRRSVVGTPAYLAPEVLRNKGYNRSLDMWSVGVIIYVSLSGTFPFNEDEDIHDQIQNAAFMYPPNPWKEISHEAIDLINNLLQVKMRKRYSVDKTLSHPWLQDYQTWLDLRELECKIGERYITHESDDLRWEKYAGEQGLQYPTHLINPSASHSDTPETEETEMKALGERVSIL

[3] = target: Protein kinase C delta type (Homo sapiens) (UniProt Q05655); test: Percentage inhibition of Protein kinase C delta at 50 uM
[4] = target: Ribosomal protein S6 kinase beta-1 (Homo sapiens) (UniProt P23443); test: Percentage inhibition of Ribosomal protein S6 kinase at 50 uM
[5] = target: Protein kinase C eta type (Homo sapiens) (UniProt P24723); test: Percentage inhibition of Protein kinase C eta at 50 uM
[6] = target: T3, Protein kinase C epsilon type (Homo sapiens) (UniProt Q02156); test: Percentage inhibition of Protein kinase C epsilon at 50 uM
T3 sequence (whole entry): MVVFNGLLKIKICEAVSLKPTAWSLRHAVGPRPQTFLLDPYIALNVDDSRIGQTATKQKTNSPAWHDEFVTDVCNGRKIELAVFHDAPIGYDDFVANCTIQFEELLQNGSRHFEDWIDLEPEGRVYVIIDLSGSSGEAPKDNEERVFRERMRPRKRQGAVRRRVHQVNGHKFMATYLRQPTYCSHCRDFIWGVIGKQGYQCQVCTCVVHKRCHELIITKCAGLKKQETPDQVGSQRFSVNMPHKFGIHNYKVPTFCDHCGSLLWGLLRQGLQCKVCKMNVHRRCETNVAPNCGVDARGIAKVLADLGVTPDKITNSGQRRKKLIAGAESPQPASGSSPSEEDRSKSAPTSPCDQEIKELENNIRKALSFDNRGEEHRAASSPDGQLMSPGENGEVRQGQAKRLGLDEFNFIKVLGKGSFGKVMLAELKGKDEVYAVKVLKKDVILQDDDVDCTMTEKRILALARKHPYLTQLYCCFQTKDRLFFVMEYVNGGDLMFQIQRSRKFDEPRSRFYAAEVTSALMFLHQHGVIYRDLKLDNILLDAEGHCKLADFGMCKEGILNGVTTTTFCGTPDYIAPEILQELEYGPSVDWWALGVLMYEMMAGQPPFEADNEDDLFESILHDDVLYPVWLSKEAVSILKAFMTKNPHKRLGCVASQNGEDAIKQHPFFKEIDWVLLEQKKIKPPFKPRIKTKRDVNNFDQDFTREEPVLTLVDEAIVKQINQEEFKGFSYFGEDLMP

[7] = target: Protein kinase C beta type (Homo sapiens) (UniProt P05771); test: Percentage inhibition of Protein kinase C beta 1 at 50 uM
[8] = target: Protein kinase C theta type (Homo sapiens) (UniProt Q04759); test: Percentage inhibition of Protein kinase C theta at 50 uM
[9] = target: Protein kinase C alpha type (Homo sapiens) (UniProt P17252); test: Percentage inhibition of Protein kinase C alpha at 50 uM
[10] = target: Protein kinase C beta type (Homo sapiens) (UniProt P05771); test: Percentage inhibition of Protein kinase C beta 2 at 50 uM
[11] = target: T4, Protein kinase C zeta type (Homo sapiens) (UniProt Q05513); test: Percentage inhibition against Protein kinase C zeta at 50 uM
T4 sequence (whole entry): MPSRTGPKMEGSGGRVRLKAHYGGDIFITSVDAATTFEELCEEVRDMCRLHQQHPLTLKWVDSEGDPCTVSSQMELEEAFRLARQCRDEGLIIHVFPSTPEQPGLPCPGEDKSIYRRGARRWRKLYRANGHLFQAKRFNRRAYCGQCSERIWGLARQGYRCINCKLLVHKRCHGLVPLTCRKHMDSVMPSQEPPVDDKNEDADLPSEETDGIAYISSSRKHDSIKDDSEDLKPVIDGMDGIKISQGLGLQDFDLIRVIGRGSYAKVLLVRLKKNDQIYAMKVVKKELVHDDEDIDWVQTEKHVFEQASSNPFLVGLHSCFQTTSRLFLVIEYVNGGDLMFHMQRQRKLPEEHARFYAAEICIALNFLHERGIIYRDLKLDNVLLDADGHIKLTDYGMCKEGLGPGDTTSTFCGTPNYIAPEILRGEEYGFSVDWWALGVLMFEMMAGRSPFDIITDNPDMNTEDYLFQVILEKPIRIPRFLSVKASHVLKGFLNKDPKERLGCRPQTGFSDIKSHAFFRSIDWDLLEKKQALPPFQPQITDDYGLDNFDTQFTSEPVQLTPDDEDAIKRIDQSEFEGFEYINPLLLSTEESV

[12] = target: Protein kinase C gamma type (Homo sapiens) (UniProt P05129); test: Percentage inhibition of Protein kinase C gamma at 50 uM

Chain of Protein kinase C beta type (Homo sapiens) (P05771 2-671 limits assumed): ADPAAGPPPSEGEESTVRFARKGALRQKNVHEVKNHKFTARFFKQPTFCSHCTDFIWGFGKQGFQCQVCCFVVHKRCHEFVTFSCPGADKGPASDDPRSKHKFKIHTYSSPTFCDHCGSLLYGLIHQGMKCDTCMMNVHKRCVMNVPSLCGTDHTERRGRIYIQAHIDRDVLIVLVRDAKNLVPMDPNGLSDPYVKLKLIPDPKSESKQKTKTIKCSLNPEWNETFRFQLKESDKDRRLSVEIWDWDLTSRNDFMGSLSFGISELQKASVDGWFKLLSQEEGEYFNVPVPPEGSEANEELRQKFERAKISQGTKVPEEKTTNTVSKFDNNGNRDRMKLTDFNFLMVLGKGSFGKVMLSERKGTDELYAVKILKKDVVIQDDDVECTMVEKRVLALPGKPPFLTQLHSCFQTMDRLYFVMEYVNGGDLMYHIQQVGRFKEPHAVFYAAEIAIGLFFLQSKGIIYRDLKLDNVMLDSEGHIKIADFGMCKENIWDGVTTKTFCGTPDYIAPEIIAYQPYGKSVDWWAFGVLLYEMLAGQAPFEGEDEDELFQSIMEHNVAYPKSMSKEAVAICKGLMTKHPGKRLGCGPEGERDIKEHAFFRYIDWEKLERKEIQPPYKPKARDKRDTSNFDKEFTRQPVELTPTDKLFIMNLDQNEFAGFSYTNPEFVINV
Chain of Protein kinase C eta type (Homo sapiens) (P24723 whole entry): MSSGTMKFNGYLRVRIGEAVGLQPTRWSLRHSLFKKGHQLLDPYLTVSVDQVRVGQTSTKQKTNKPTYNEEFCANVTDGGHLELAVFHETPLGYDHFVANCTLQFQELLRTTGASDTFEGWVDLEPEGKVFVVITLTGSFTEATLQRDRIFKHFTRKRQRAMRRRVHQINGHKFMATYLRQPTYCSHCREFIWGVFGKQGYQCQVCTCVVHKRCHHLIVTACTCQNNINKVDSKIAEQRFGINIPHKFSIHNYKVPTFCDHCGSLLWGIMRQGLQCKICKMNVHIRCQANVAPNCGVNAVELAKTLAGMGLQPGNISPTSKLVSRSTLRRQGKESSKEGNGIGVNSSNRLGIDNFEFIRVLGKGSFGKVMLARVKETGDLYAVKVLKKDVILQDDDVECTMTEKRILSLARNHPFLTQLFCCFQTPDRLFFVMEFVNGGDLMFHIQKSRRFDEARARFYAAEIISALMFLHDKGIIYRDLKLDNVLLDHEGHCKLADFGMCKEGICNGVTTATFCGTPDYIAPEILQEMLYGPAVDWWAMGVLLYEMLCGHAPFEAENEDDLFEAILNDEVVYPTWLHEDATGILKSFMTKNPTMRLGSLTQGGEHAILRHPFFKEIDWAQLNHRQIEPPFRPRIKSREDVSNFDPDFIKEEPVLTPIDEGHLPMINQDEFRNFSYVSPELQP
Chain of Ribosomal protein S6 kinase beta-1 (Homo sapiens) (P23443 whole entry, looked up): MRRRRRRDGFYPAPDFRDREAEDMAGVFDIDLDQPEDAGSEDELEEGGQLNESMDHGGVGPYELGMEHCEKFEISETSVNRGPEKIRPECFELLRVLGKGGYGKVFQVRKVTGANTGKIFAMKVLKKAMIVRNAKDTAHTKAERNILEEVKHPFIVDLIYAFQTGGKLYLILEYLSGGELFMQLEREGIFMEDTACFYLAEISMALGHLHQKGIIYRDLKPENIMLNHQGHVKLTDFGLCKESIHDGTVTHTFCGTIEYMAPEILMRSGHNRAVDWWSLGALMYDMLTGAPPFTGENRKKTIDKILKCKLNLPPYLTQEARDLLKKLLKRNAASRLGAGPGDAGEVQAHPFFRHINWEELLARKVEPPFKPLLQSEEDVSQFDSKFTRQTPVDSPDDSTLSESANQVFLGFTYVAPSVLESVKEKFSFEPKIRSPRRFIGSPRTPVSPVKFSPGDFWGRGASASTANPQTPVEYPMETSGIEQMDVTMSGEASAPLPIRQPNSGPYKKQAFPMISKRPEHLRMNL
Chain of Protein kinase C delta type (Homo sapiens) (Q05655 whole entry, looked up): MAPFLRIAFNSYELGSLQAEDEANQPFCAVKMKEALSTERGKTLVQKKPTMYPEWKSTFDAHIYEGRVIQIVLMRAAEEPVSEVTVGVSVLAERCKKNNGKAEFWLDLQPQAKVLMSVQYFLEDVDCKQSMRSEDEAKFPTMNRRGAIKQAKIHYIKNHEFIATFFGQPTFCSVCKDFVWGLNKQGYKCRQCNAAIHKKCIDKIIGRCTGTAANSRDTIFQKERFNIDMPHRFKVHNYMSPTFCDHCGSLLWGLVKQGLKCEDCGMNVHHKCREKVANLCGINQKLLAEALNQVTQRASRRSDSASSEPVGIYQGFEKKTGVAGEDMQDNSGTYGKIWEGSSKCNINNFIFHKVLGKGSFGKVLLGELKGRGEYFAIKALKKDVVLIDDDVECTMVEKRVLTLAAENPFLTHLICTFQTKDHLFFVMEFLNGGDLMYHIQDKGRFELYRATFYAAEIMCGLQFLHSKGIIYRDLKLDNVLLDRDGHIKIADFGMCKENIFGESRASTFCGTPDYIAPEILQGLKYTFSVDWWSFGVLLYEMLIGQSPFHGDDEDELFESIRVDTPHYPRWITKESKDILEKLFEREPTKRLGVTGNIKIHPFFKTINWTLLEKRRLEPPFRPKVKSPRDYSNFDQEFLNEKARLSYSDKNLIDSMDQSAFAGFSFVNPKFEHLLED
Chain of Protein kinase C theta type (Homo sapiens) (Q04759 whole entry, looked up): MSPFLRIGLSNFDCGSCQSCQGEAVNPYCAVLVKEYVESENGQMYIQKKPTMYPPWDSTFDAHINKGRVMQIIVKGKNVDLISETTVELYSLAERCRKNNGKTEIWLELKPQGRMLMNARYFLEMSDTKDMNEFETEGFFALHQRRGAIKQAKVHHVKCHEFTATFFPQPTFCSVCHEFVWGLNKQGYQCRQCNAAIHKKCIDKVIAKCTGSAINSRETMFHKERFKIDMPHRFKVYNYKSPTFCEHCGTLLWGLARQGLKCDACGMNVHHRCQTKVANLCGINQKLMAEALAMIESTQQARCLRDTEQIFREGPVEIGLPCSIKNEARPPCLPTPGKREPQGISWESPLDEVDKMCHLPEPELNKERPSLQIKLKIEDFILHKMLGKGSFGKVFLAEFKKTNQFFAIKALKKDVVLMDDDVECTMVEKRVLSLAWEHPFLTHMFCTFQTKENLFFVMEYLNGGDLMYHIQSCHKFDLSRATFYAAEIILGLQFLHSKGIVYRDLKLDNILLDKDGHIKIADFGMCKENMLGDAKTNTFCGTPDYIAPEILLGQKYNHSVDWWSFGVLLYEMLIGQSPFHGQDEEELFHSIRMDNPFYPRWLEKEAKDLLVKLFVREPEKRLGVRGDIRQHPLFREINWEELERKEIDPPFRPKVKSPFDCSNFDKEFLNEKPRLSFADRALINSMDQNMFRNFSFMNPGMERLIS

| Activity [1] [%] | Activity [2] [%] | Activity [3] [%] | Activity [4] [%] | Activity [5] [%] | Activity [6] [%] | Activity [7] [%] | Activity [8] [%] | Activity [9] [%] | Activity [10] [%] | Activity [11] [%] | Activity [12] [%] | SMILES |
| --- | --- | --- | --- | --- | --- | --- | --- | --- | --- | --- | --- | --- |
| 96 | 97 | 108 | 96 | 98 | 95 | 84 | 100 | 95 | 106 | 100 | 115 | CCCCCNC1=C(c2cn(C)c3ccccc23)C(=O)N(C)C1=O |
| 87 | 88 | 82 | 28 | 55 | 10 | 78 | 78 | 66 | 84 | 85 | 85 | CN1C(=O)C(c2c[nH]c3ccccc23)=C(c2cn(CCCN)c3ccccc23)C1=O |
